Results on seven molecules are retold here after publication PMC8584173, “The Cytotoxic Effect of Copper (II) Complexes with Halogenated 1,3-Disubstituted Arylthioureas on Cancer and Bacterial Cells” (International Journal of Molecular Sciences, 2021).

Values joined by “and” are separate entries in the source; they are usually repeats but may differ in a detail not shown here. Equal entries are not always repeated.

In experiment [1] the test system is standard staphylococci. Kind of experiment: MIC, standard staphylococci. To be noted: standard staphylococci / S. aureus isolates. The experiment is classed as cell-based, Staphylococcus. On the procedure:
(§1) The antimicrobial activity of the compounds was tested on Gram-positive bacteria (Staphylococcus aureus NCTC 4163, Staphylococcus aureus ATCC 25923, Staphylococcus aureus ATCC 6538, Staphylococcus aureus ATCC 29213, Staphylococcus epidermidis ATCC 12228, Staphylococcus epidermidis ATCC 35984), Gram-negative rods (Escherichia coli ATCC 10538, Escherichia coli ATCC 25922, Pseudomonas aeruginosa ATCC 15442, Pseudomonas aeruginosa ATCC 27863) and yeasts (Candida albicans ATCC 10231, Candida albicans ATCC 90028, Candida parapsilosis ATCC 22019). Hospital methicillin-resistant strains of Staphylococcus aureus and Staphylococcus epidermidis were obtained from the collection of the Department of Pharmaceutical Microbiology, Medical University of Warsaw, Poland.
(§2) Antifungal activities were assessed using Mueller–Hinton agar + 2% glucose and 0.5 µg/mL methylene blue dye medium. Sterile filter paper discs (9 mm diameter, Whatman Number 3 chromatography paper) were dripped with tested compound solutions (in dimethylsulfoxide, DMSO) to load 400 μg of a given compound per disc. Dry discs were placed on the surface of appropriate agar medium. The results (diameter of the growth inhibition zone) were read after 18 h of incubation at 35 °C. Minimal inhibitory concentration (MIC) was tested by the twofold serial microdilution method (in 96-well microtiter plates) using Mueller–Hinton broth medium (Beckton Dickinson) for bacteria or RPMI-1640 medium for Candida species, according to CLSI guidelines. The stock solution of tested agent was prepared in DMSO and diluted in sterile water. […] The final inoculum of all studied microorganisms was 10^5 CFU/ mL^−1 (colony forming units per ml). Minimal inhibitory concentrations (the lowest concentration of a tested agent that prevents visible growth of a microorganism) were read after 18 h (bacteria) or 24 h (yeasts) of incubation at 35 °C.

Experiment [2] has as its system interleukin-6 (IL-6). The experiment can be described thus: IL-6 level assay (ELISA). Format: cell-based, human. The conditions noted are these: 72 h; for decrease of IL-6 level / reduction of IL-6 level, times: SW480, IC50 dose, vs control; for reduction of IL-6 secretion, times: PC3, IC50 dose. On the procedure: IL-6 concentration at all studied cancer cells and normal HaCaT cell lines was measured by ELISA kit (Diaclon SAS Besancon Cedex, France). […] IL-6 in cell culture supernatant was measured using enzyme-linked immunosorbent assay in accordance with the manufacturer’s protocol.
(In general: In an ELISA, binding on a coated surface is turned into a signal by an enzyme label.)

For experiment [3], the system named is detoxifying and ROS-scavenging enzymes (GST, GR, SOD, PRDX). Kind of experiment: LC–MS proteome analysis, all 12 tested enzymes (text summaries). Format: cell-based, human. The conditions noted are these: PC3, IC50 concentration, span over enzymes. How it is done: (§3) Enzymes involved in oxidoreductive potential were analyzed in the cell lysates obtained after treatment cells with selected conjugates for 24 h. Cells were washed with phosphate-buffered saline (PBS) and harvested, then centrifuged at 1000× g for 10 min. Then, lysis buffer (containing protease inhibitor, 1% RIPA Lysis and Extraction Buffer (ThermoFisher)) and cold PBS were added, and samples were sonicated three times in ice bath. Next, the cell lysates were centrifuged at 14,000× g at 4 °C for 15 min, and then supernatants were stored at […] before use. Protein concentration was measured by the Bradford method.
(§4) Normalized protein concentrations (5 µg) from cell lysate were precipitated by ice cold (–20 °C) acetonitrile (ACN, Merck, in ratio 1:4). Then, samples were centrifuged (–9 °C, 30 min., 18,000× g), the supernatant was discarded and ACN excess was evaporated using a vacuum centrifuge (5 min., room temp.). Protein pellet was dissolved in 40 mM ammonium bicarbonate. An amount of 500 mM dithiothreitol (DTT, with final concentration 20 mM) and 1 M iodoacetamide (IAA, with final concentration 40 mM) were used for reduction and alkylation processes. After 16 h of incubation in 37 °C with Trypsin Gold (Promega), digested protein samples were diluted with 0.1% formic acid (ThermoFisher) and centrifuged (+2 °C, 30 min, 18,000× g).
LC–MS analysis was carried out with the use of nanoUHPLC (nanoElute, Bruker) coupled by CaptiveSpray (Bruker) to ESI-Q-TOF mass spectrometer (Compact, Bruker). […]
(§5) Sample ionizations were performed at a gas flow of 3.0 L/min, temperature of 150 °C and voltage of the capillary at 1600 V. The quadrupole energy was fixed to 5.0 eV and collision chamber energy 7.0 eV, with an ion transfer time of 90 µs. The ions were analyzed in the positive polarity mode in the range 150–2200 m/z, with the acquisition frequency of the 1 Hz spectrum, as well as with the autoMS/MS system.
The collected spectra were analyzed and calibrated using DataAnalysis software (Bruker) and then identified in ProteinScape (Bruker) by the MASCOT server. […]

Experiment [4] relates to Peroxiredoxin-4 (PRDX4_HUMAN). Kind of experiment: LC–MS proteome analysis, PRDX4. The experiment is classed as cell-based, Homo sapiens. To be noted: for Protein Intensity, % (PRDX4): IC50 concentration, % of control. How it is done:
as §3, §4
LC–MS analysis was carried out with the use of nanoUHPLC (nanoElute, Bruker) coupled by CaptiveSpray (Bruker) to ESI-Q-TOF mass spectrometer (Compact, Bruker). Two-column separation method was used, i.e., pre-column (300 µm × 5 mm, C18 PepMap 100, 5 µm, 100Å, Thermo Scientific) and Aurora separation column with CSI fitting (75 µm × 250 mm, C18 1.6 µm) in gradient 2% B to 35% B in 90 min with the 300 nL/min flow rate. Mobile phases (A) 0.1% formic acid in water and (B) 0.1% formic acid in ACN were used.
as §5
The collected spectra were analyzed and calibrated using DataAnalysis software (Bruker) and then identified in ProteinScape (Bruker) by the MASCOT server. Protein identification was conducted using the online SwissProt and NCBIprot databases, and their references and biological significance were identified using Reactome.org, String.org and KEGG.

In experiment [5] the test system is SW620 cells. Kind of experiment: LDH release assay, SW620. The experiment is classed as cell-based, human. The conditions noted are these: 72 h. How it is done: The presence of lactate dehydrogenase (LDH) in culture medium indicates a disturbance of the integrity of the cellular membrane. The LDH activity was performed after 72 h incubation of cells (1 × 10^4 cells per well) in 96-well plates with selected compounds according to manufacturer’s protocol (Roche Diagnostics, Germany), as was described by Chrzanowska et al.. Compound mediated cytotoxicity was determined using equation: ((A test sample−A low control)/ (A high control−A low control)) × 100% (A-absorbance), where “low control” means cells in medium with 2% FBS without tested compounds, and “high control” means cells incubated in medium with 2% FBS and 1% Triton X-100 (100% LDH release). The cytotoxicity was expressed as percentage of LDH release as compared with the maximum release of LDH from Triton-X-100-treated cells.
(Release of lactate dehydrogenase indicates damage to the cell membrane.)

Experiment [6] concerns SW480 cells. Kind of experiment: Annexin V-FITC/PI flow cytometry, SW480. Format: cell-based, human. The conditions noted are these: for apoptosis of SW480 cells: at 4 μM (supplement text). On the procedure: The cells were cultured and harvested under the conditions described in the cell culture section. […] The effect of these compounds on the process of early and late apoptosis and necrosis was determined, as described previously, by dual staining with annexin V-FITC and propidium iodide according to manufacturer’s protocol (Becton Dickinson). The cells that were annexin V-FITC positive and PI-negative were identified as early apoptotic and annexin V-FITC and PI-positive as late apoptotic or necrotic.

The test system of experiment [7] is clinical methicillin-resistant strains of S. aureus (MRSA) and S. epidermidis (MRSE). Kind of experiment: MIC, clinical strains. The experiment is classed as cell-based, Staphylococcus. On the procedure:
as §1, §2

Broadly, the MIC is the smallest concentration in the dilution series that meets the test's criterion for growth inhibition. Higher therefore signals a less susceptible organism. Regarding `O=[N+]([O-])c1cc([N+]2=C(Nc3ccc(Cl)c(Cl)c3)[S][Cu-2]23[S]C(Nc2ccc(Cl)c(Cl)c2)=[N+]3c2ccc(Cl)c([N+](=O)[O-])c2)ccc1Cl` [Compound 5, Copper (II) complex with 1-(4-chloro-3-nitrophenyl)-3-(3,4-dichlorophenyl)thiourea], the minimum inhibitory concentration (MIC) in experiment [1] was 16 to 32 µg/mL and 32 µg/mL.

Consider `O=[N+]([O-])c1cc([N+]2=C(Nc3ccccc3F)[S][Cu-2]23[S]C(Nc2ccccc2F)=[N+]3c2ccc(Cl)c([N+](=O)[O-])c2)ccc1Cl` [Compound 7, Copper (II) complex with 1-(2-fluorophenyl)-3-(4-chloro-3-nitrophenyl)thiourea], for which the “decrease of IL-6 level” value in experiment [2] is reported as not above 30%. For the same molecule, in experiment [3], the “reduction of intensity of the 12 tested enzymes” value was 20.8-87.6%. Also, the “Protein Intensity, % (PRDX4)” value in experiment [4] (PC3, 24 h) is listed as 35.7%; in experiment [4] (SW480, 24 h), 58.3%; in experiment [4] (SW620, 24 h) it was 73.0%. In experiment [4] (SW480, IC50 concentration), the “reduction of PRDX4 intensity” value came to 41.7%. The LDH release in experiment [5] (SW620, 60 μM) came to 30.2%. The results for the MIC in experiment [1] and in experiment [7] were 16 to 32 µg/mL and 4 to 8 µg/mL, respectively. For the same molecule, the “early apoptosis, % of cells” value in experiment [6] (SW480, IC50 dose, 72 h) is reported as not above 40%.

As for `O=[N+]([O-])c1cc([N+]2=C(Nc3cccc(Br)c3)[S][Cu-2]23[S]C(Nc2cccc(Br)c2)=[N+]3c2ccc(Cl)c([N+](=O)[O-])c2)ccc1Cl` [Compound 2, Copper (II) complex with 1-(3-bromophenyl)-3-(4-chloro-3-nitrophenyl)thiourea], the MIC in experiment [1] lay in the range of 16 to 32 µg/mL; in experiment [7], 4 to 8 µg/mL.

In the case of `O=[N+]([O-])c1cc([N+]2=C(Nc3ccc(Br)cc3)[S][Cu-2]23[S]C(Nc2ccc(Br)cc2)=[N+]3c2ccc(Cl)c([N+](=O)[O-])c2)ccc1Cl` [Compound 3, Copper (II) complex with 1-(4-bromophenyl)-3-(4-chloro-3-nitrophenyl)thiourea], the “decrease of IL-6 level” value in experiment [2] is not above 30%. Further, the “reduction of intensity of the 12 tested enzymes” value in experiment [3] is on record as 29.4–69.1%. Also, the “Protein Intensity, % (PRDX4)” value in experiment [4] (PC3, 24 h) came out at 61.1%; in experiment [4] (SW480, 24 h), 60.1%; in experiment [4] (SW620, 24 h), 76.4%. The “early apoptosis, % of cells” value in experiment [6] (SW480, IC50 dose, 72 h) was not above 40%.

With `O=[N+]([O-])c1cc([N+]2=C(Nc3ccccc3Br)[S][Cu-2]23[S]C(Nc2ccccc2Br)=[N+]3c2ccc(Cl)c([N+](=O)[O-])c2)ccc1Cl` [Compound 1, Copper (II) complex with 1-(2-bromophenyl)-3-(4-chloro-3-nitrophenyl)thiourea], the “reduction of IL-6 secretion, times” value in experiment [2] amounted to 1.5 times. In addition, the “reduction of IL-6 level, times” value in experiment [2] came to 1.9 times. In addition, in experiment [2] (SW620, IC50 dose), the “reduction of IL-6 concentration, times” value is 2.4 times. The “Protein Intensity, % (PRDX4)” value is on record as 72.6% in experiment [4] (PC3, 24 h); 67.6% in experiment [4] (SW480, 24 h); 79.4% in experiment [4] (SW620, 24 h). For the same molecule, the LDH release is 22% in experiment [5] (SW620, 10 μM) and 48% in experiment [5] (SW620, 60 μM). Also, the “early apoptosis, % of cells” value in experiment [6] (SW480, IC50 dose, 72 h) is 45.18% ± 3.9%. Further, the “apoptosis of SW480 cells” value in experiment [6] is given as 47%. Also, in experiment [7], the MIC was in the range of 4 to 8 µg/mL.

As for `O=[N+]([O-])c1cc([N+]2=C(Nc3ccc(F)c(Cl)c3)[S][Cu-2]23[S]C(Nc2ccc(F)c(Cl)c2)=[N+]3c2ccc(Cl)c([N+](=O)[O-])c2)ccc1Cl` [Compound 4, Copper (II) complex with 1-(3-chloro-4-fluorophenyl)-3-(4-chloro-3-nitrophenyl)thiourea], the MIC was 4 µg/mL in experiment [1] and 4 to 8 µg/mL in experiment [7].

`O=[N+]([O-])c1cc([N+]2=C(Nc3ccc(I)cc3)[S][Cu-2]23[S]C(Nc2ccc(I)cc2)=[N+]3c2ccc(Cl)c([N+](=O)[O-])c2)ccc1Cl` [Compound 8, Copper (II) complex with 1-(4-iodophenyl)-3-(4-chloro-3-nitrophenyl)thiourea]: in experiment [2], the “reduction of IL-6 secretion, times” value is given as “almost twofold”. Moreover, the “reduction of IL-6 level, times” value in experiment [2] is “twofold”. For the same molecule, the “reduction of intensity of the 12 tested enzymes” value in experiment [3] is recorded as 31.5–75.2%. Moreover, the “Protein Intensity, % (PRDX4)” value in experiment [4] (PC3, 24 h) was 30.8%; in experiment [4] (SW480, 24 h), 78.2%; in experiment [4] (SW620, 24 h), 93.9%. For the same molecule, the LDH release in experiment [5] (SW620, 10 μM) is listed as 23%; in experiment [5] (SW620, 60 μM), 42.4%. For the same molecule, the MIC in experiment [1] is 4 µg/mL; in experiment [7], 4 to 8 µg/mL. Moreover, the “early apoptosis, % of cells” value in experiment [6] (SW480, IC50 dose, 72 h) was 48.9% ± 3.4%. In experiment [6] (SW480, IC50 dose, 72 h), the “late apoptosis, % of cells” value is recorded as 20.7% ± 2.8%. Also, in experiment [6], the “apoptosis of SW480 cells” value came to 47%.
